Laboratory results published in ChEMBL document CHEMBL2311418, “Structure-activity relationships of antitubercular salicylanilides consistent with disruption of the proton gradient via proton shuttling” (Bioorg Med Chem, 2013).
≈ marks a conversion by molar mass, not a printed value.

What was measured:
[1] = Cytotoxicity against mouse macrophage cell line J774.1 (ATCC TIB-67) for 3 days by Alamar Blue; type: cell-based; conditions: 72 h
[2] = tested on: Mycobacterium tuberculosis; experiment: Antitubercular activity against Mycobacterium tuberculosis H37Rv ATCC27294 assessed as complete cessation of growth; type: functional; conditions: H37Rv ATCC 27294

SMILES | IC50 [1] [µM] | MIC [2] [µM]
O=C(Nc1ccccc1)c1cc(Cl)ccc1O | 22 | 13 (≈ 3.22 µg/mL)
Cc1cc(NS(=O)(=O)c2ccc(NC(=O)c3cc(Cl)ccc3O)cc2)no1 | > 60 | > 50
O=C(Nc1ccc(C(F)(F)F)cc1)c1cc(Cl)ccc1O | 2.8 | 1.6 (≈ 0.505 µg/mL)
Cc1cc(C)cc(NC(=O)c2cc(Cl)ccc2O)c1 | 21 | ≥ 50
O=C(Nc1cccc(Br)c1)c1cc(Cl)ccc1O | 5.7 | 6.3 (≈ 2.06 µg/mL)
N#Cc1cccc(NC(=O)c2cc(Cl)ccc2O)c1 | 10 | 25 (≈ 6.82 µg/mL)
O=C(Nc1cccc(F)c1)c1cc(Cl)ccc1O | 15 | 6.3 (≈ 1.67 µg/mL)
O=C(Nc1cc(Cl)cc(Cl)c1)c1cc(Cl)ccc1O | 3.1 | 1.6 (≈ 0.507 µg/mL)
O=C(Nc1cc(F)cc(F)c1)c1cc(Cl)ccc1O | 6.1 | 3.1 (≈ 0.879 µg/mL)
O=C(O)c1cccc(NC(=O)c2cc(Cl)ccc2O)c1 | > 60 | > 50
CCOC(=O)c1cccc(NC(=O)c2cc(Cl)ccc2O)c1 | 17 | 13 (≈ 4.16 µg/mL)
NC(=O)c1cccc(NC(=O)c2cc(Cl)ccc2O)c1 | > 60 | > 50
O=C(Nc1ccccc1)c1cccc(NC(=O)c2cc(Cl)ccc2O)c1 | > 60 | > 50
O=C(Nc1ccc(F)cc1)c1cc(Cl)ccc1O | 17 | 13 (≈ 3.45 µg/mL)
O=C(Nc1ccc(OC(F)(F)F)cc1)c1cc(Cl)ccc1O | 7.3 | 3.1 (≈ 1.03 µg/mL)
O=C(Nc1ccc(Oc2ccccc2)cc1)c1cc(Cl)ccc1O | 43 | 13 (≈ 4.42 µg/mL)
CC(C)(C)c1ccc(NC(=O)c2cc(Cl)ccc2O)cc1 | 19 | 13 (≈ 3.95 µg/mL)
COc1ccc(NC(=O)c2cc(Cl)ccc2O)cc1 | > 60 | > 50
O=C(Nc1ccc(N2CCOCC2)cc1)c1cc(Cl)ccc1O | – | > 50
NC(=O)c1ccc(NC(=O)c2cc(Cl)ccc2O)cc1 | > 60 | > 50
O=C(Nc1ccccc1)c1ccc(NC(=O)c2cc(Cl)ccc2O)cc1 | > 60 | > 50
O=C(Nc1ccc(S(=O)(=O)Nc2ccccc2)cc1)c1cc(Cl)ccc1O | > 60 | > 50
Cc1c(NC(=O)c2cc(Cl)ccc2O)cccc1C(F)(F)F | 8 | 3.1 (≈ 1.02 µg/mL)
O=C(Nc1cccc(C(F)(F)F)c1F)c1cc(Cl)ccc1O | 5.3 | 3.1 (≈ 1.03 µg/mL)

SMILES | IC50 [1] [µM] | MIC [2] [µM]
O=C(Nc1cccc(F)c1F)c1cc(Cl)ccc1O | 13 | 13 (≈ 3.69 µg/mL)
O=C(Nc1ccc(F)cc1C(F)(F)F)c1cc(Cl)ccc1O | 13 | 6.3 (≈ 2.1 µg/mL)
O=C(Nc1ccc(Br)cc1C(F)(F)F)c1cc(Cl)ccc1O | 11 | 6.3 (≈ 2.49 µg/mL)
O=C(Nc1ccc(C(F)(F)F)cc1Cl)c1cc(Cl)ccc1O | 2.4 | 0.8 (≈ 0.28 µg/mL)
O=C(Nc1ccc(F)cc1F)c1cc(Cl)ccc1O | 8.5 | 13 (≈ 3.69 µg/mL)
O=C(Nc1cc(C(F)(F)F)ccc1Cl)c1cc(Cl)ccc1O | 3.5 | 1.6 (≈ 0.56 µg/mL)
O=C(Nc1cc(C(F)(F)F)ccc1F)c1cc(Cl)ccc1O | 2.6 | 1.6 (≈ 0.534 µg/mL)
O=C(Nc1cc(C(F)(F)F)ccc1Br)c1cc(Cl)ccc1O | 2.9 | 0.8 (≈ 0.316 µg/mL)
COc1ccc(C(F)(F)F)c(NC(=O)c2cc(Cl)ccc2O)c1 | 4.8 | 6.3 (≈ 2.18 µg/mL)
O=C(Nc1cc(F)ccc1Cl)c1cc(Cl)ccc1O | 3.2 | 3.1 (≈ 0.93 µg/mL)
O=C(Nc1cc([N+](=O)[O-])ccc1F)c1cc(Cl)ccc1O | 8.5 | 6.3 (≈ 1.96 µg/mL)
O=C(Nc1c(Cl)cccc1C(F)(F)F)c1cc(Cl)ccc1O | 23 | > 50
O=C(Nc1c(F)cccc1F)c1cc(Cl)ccc1O | > 60 | > 50
O=C(Nc1ccc(F)c(C(F)(F)F)c1)c1cc(Cl)ccc1O | 5.3 | 1.6 (≈ 0.534 µg/mL)
O=C(Nc1ccc(Cl)c(C(F)(F)F)c1)c1cc(Cl)ccc1O | 4.5 | 1.6 (≈ 0.56 µg/mL)
O=C(Nc1ccc(Br)c(C(F)(F)F)c1)c1cc(Cl)ccc1O | 4.5 | 3.1 (≈ 1.22 µg/mL)
N#Cc1ccc(NC(=O)c2cc(Cl)ccc2O)cc1C(F)(F)F | 5.8 | 6.3 (≈ 2.15 µg/mL)
O=C(Nc1ccc(F)c(Cl)c1)c1cc(Cl)ccc1O | 4.4 | 3.1 (≈ 0.93 µg/mL)
O=C(Nc1ccc(F)c(F)c1)c1cc(Cl)ccc1O | 7.7 | 3.1 (≈ 0.879 µg/mL)
Cc1ccc(NC(=O)c2cc(Cl)ccc2O)cc1I | 6.3 | 6.3 (≈ 2.44 µg/mL)
O=C(Nc1cc(Br)ccc1C(F)(F)F)c1cc(Cl)ccc1O | 5.8 | 1.6 (≈ 0.631 µg/mL)
COc1cc(NC(=O)c2cc(Cl)ccc2O)cc(C(F)(F)F)c1 | 18 | 6.3 (≈ 2.18 µg/mL)
CC(C)(C)c1cc(NC(=O)c2cc(Cl)ccc2O)cc(C(C)(C)C)c1 | 4.1 | 6.3 (≈ 2.27 µg/mL)
Cc1c(C(F)(F)F)cc(NC(=O)c2cc(Cl)ccc2O)cc1C(F)(F)F | < 1.9 | 0.8 (≈ 0.318 µg/mL)

SMILES | IC50 [1] [µM] | MIC [2] [µM]
Cc1c(NC(=O)c2cc(Cl)ccc2O)cc(C(F)(F)F)cc1C(F)(F)F | 3.2 | 3.1 (≈ 1.23 µg/mL)
O=C(Nc1cc(F)c(Br)c(F)c1)c1cc(Cl)ccc1O | 4.3 | 1.6 (≈ 0.58 µg/mL)
O=C(Nc1cc(F)c(F)c(F)c1)c1cc(Cl)ccc1O | 4.7 | 1.6 (≈ 0.483 µg/mL)
O=C(Nc1cc(Cl)c(Cl)c(Cl)c1)c1cc(Cl)ccc1O | 5.4 | 1.6 (≈ 0.562 µg/mL)
O=C(Nc1cc(F)c(F)cc1F)c1cc(Cl)ccc1O | 6.2 | 3.1 (≈ 0.935 µg/mL)
O=C(Nc1ccc(F)c(F)c1F)c1cc(Cl)ccc1O | 6.7 | 6.3 (≈ 1.9 µg/mL)
COc1cc(NC(=O)c2cc(Cl)ccc2O)c(Cl)cc1Cl | 8 | 13 (≈ 4.51 µg/mL)
O=C(Nc1cc(O)c(Cl)cc1Cl)c1cc(Cl)ccc1O | 32 | > 50
O=C(Nc1cc(Br)cc(C(F)(F)F)c1)c1cc(F)ccc1O | 4.7 | 3.1 (≈ 1.17 µg/mL)
O=C(Nc1cc(C(F)(F)F)ccc1Cl)c1cc(F)ccc1O | 6.1 | 3.1 (≈ 1.03 µg/mL)
O=C(Nc1cc(F)cc(F)c1)c1cc(F)ccc1O | 9.6 | 6.3 (≈ 1.68 µg/mL)
O=C(Nc1ccc(C(F)(F)F)cc1)c1cc(F)ccc1O | 5.4 | 3.1 (≈ 0.928 µg/mL)
O=C(Nc1cc(C(F)(F)F)ccc1F)c1cc(F)ccc1O | 5.1 | 6.3 (≈ 2 µg/mL)
O=C(Nc1cccc(C(F)(F)F)c1)c1cc(F)ccc1O | 6.1 | 6.3 (≈ 1.89 µg/mL)
O=C(Nc1cc(C(F)(F)F)cc(C(F)(F)F)c1)c1cccc(Cl)c1 | > 60 | > 50
O=C(Nc1cc(C(F)(F)F)cc(C(F)(F)F)c1)c1ccccc1 | – | > 50
O=C(Nc1cc(C(F)(F)F)cc(C(F)(F)F)c1)c1cc(-n2cccc2)ccc1O | 3.1 | 3.1 (≈ 1.28 µg/mL)
Cc1ccc(O)c(C(=O)Nc2cc(C(F)(F)F)cc(C(F)(F)F)c2)c1 | 5.4 | 6.3 (≈ 2.29 µg/mL)
O=C(Nc1cc(C(F)(F)F)cc(C(F)(F)F)c1)c1cc(F)ccc1O | 2.5 | 3.1 (≈ 1.14 µg/mL)
O=C(Nc1cc(C(F)(F)F)cc(C(F)(F)F)c1)c1cc(Br)ccc1O | 4.9 | 6.3 (≈ 2.7 µg/mL)
O=C(Nc1cc(C(F)(F)F)cc(C(F)(F)F)c1)c1cc(I)ccc1O | 5.6 | 6.3 (≈ 2.99 µg/mL)
COc1ccc(O)c(C(=O)Nc2cc(C(F)(F)F)cc(C(F)(F)F)c2)c1 | 7.7 | 6.3 (≈ 2.39 µg/mL)
O=C(Nc1cc(C(F)(F)F)cc(C(F)(F)F)c1)c1cc(Cl)cc(Cl)c1O | > 60 | 13 (≈ 5.44 µg/mL)
O=C(Nc1cc(C(F)(F)F)cc(C(F)(F)F)c1)c1cccc(O)c1O | 1.7 | > 50

SMILES | IC50 [1] [µM] | MIC [2] [µM]
O=C(Nc1cc(C(F)(F)F)cc(C(F)(F)F)c1)c1cc([N+](=O)[O-])ccc1O | > 60 | ≥ 50
CC(=O)Oc1ccc(Cl)cc1C(=O)Nc1cc(C(F)(F)F)cc(C(F)(F)F)c1 | > 60 | 1.6 (≈ 0.681 µg/mL)
COc1ccc(Cl)cc1C(=O)Nc1cc(C(F)(F)F)cc(C(F)(F)F)c1 | > 60 | > 50
O=C(Nc1cc(C(F)(F)F)cc(C(F)(F)F)c1)c1cc(Cl)ccc1OCc1ccccc1 | > 60 | > 50
Nc1ccc(Cl)cc1C(=O)Nc1cc(C(F)(F)F)cc(C(F)(F)F)c1 | > 60 | > 50
O=C(Nc1cc(C(F)(F)F)cc(C(F)(F)F)c1)c1ccccc1Cl | > 1.7 | > 50
Oc1ccc(Cl)cc1CNc1cc(C(F)(F)F)cc(C(F)(F)F)c1 | 7.8 | ≥ 50
O=C(Nc1cc(C(F)(F)F)cc(C(F)(F)F)c1)Nc1cc(Cl)ccc1O | 13 | ≥ 50
O=C(Oc1cc(C(F)(F)F)cc(C(F)(F)F)c1)c1cc(Cl)ccc1O | > 60 | > 50
O=C(Nc1cc(Cl)ccc1O)c1cc(C(F)(F)F)cc(C(F)(F)F)c1 | 12 | > 50
Oc1ccc(Cl)cc1C(=S)Nc1cc(C(F)(F)F)cc(C(F)(F)F)c1 | – | 1.6 (≈ 0.64 µg/mL)
O=S(=O)(Nc1cc(C(F)(F)F)cc(C(F)(F)F)c1)c1cc(Cl)ccc1O | 23 | ≥ 50
O=C(NCc1cc(C(F)(F)F)cc(C(F)(F)F)c1)c1cc(Cl)ccc1O | 27 | 6.3 (≈ 2.51 µg/mL)
O=C(Nc1ccccc1C(F)(F)F)c1cc(Cl)ccc1O | 19 | –
O=C(Nc1ccc(C(F)(F)F)c(C(F)(F)F)c1)c1cc(Cl)ccc1O | 4.9 | 0.8 (≈ 0.307 µg/mL)
O=C(Nc1cccc(C(F)(F)F)c1C(F)(F)F)c1cc(Cl)ccc1O | 8.1 | 6.3 (≈ 2.42 µg/mL)
O=C(Nc1cc(C(F)(F)F)ccc1C(F)(F)F)c1cc(Cl)ccc1O | 6.6 | 3.1 (≈ 1.19 µg/mL)
O=C(Nc1ccccc1S(=O)(=O)c1ccccc1)c1cc(Cl)ccc1O | > 60 | > 50
O=C(Nc1cc(C(F)(F)F)cc(C(F)(F)F)c1)c1ccccc1O | 12 | 6.3 (≈ 2.2 µg/mL)
N#Cc1ccc(NC(=O)c2cc(Cl)ccc2O)cc1 | 11 | 13 (≈ 3.54 µg/mL)
O=C(Nc1cccc(C(F)(F)F)c1)c1cc(Cl)ccc1O | 5.9 | 3.1 (≈ 0.979 µg/mL)
O=C(Nc1cc(C(F)(F)F)cc(C(F)(F)F)c1)c1cc(Cl)ccc1O [IMD-0354] | 5.2 | 3.1 (≈ 1.19 µg/mL)
